Results taken from patent US9493466B2, “Treatment of cancer with TOR kinase inhibitors” (Signal Pharmaceuticals, LLC, priority 2011, dated 2016).

What was measured:
DLBCL = assay: Phase 1/2 study Part B: tumor response, DLBCL; type: in vivo, human; details: 11 evaluable patients
From the text: In Part B, subjects may start Compound 1 at the MTD and/or a lower dose level based on safety, PK and PD data from Part A. Approximately 150 subjects will be treated and evaluated for safety and preliminary antitumor activity after every two cycles of therapy. Tumor types include non-small cell lung cancer (NSCLC), glioblastoma multiforme (GBM), hepatocellular carcinoma (HCC), gastrointestinal neuroendocrine tumor of non-pancreatic origin (NET), diffuse large B-cell lymphoma (DLBCL), multiple myeloma (MM), and hormone receptor positive breast cancer (HRPBC). Up to 20 subjects will be enrolled in each tumor type.
Subjects will be evaluated for efficacy every 2 cycles through cycle 6 and every 3 cycles thereafter. The primary efficacy variable is response. Tumor assessments, including imaging (CT, MRI and/or PET) of the chest and abdomen and other sites as appropriate, will be performed during Screening. Subjects with brain lesions will also have brain scans at Screening and during follow-up tumor assessments. After Screening, tumor assessments (for all tumors except multiple myeloma) will be performed on completion of Cycles 2, 4 and 6 (i.e., on Cycles 3, 5 and 7/Day 1±7 days) and then every 3 months thereafter (e.g., Cycle 10 and 13/Day 1±7 days). Tumor assessment (for multiple myeloma and only NHL/DLBCL with known or suspected marrow involvement) (bone marrow aspiration and biopsy, with PD biomarker analysis, cytogenetic analysis if abnormally present at Screening) will be performed on completion of Cycles 4, 8, 12 and 16 only (i.e., on Cycles 5, 9, 13 and 17/Day 1±7 days). Cytogenetics need not be repeated if normal at Screening. […] Subjects will be evaluated for tumor response on completion of Cycle 2, 4, 6, and so on. […]
For Part B, efficacy variables to be analyzed include tumor response at the end of treatment, the proportion of subject alive and progression-free, and duration of response. […]

[1] = tested on: TORC1 (pS6, p4EBP1) and TORC2 (pAkt) pathways; assay: TOR pathway biomarker measurements in whole blood; type: in vivo, human
From the text: Parameters to be explored include mTOR biomarker inhibition in blood and tumor, histopathologic response, correlations with pharmacogenomic findings and percentage of inhibition of pAKT (Ser473), phospho-S6RP (Ser235/236 and/or Ser240/244), phospho-4EB-P1 (Thr37/46), and/or other relevant biomarkers in peripheral blood samples and tumor, adverse events and clinical outcome. The pharmacodynamic (PD) measurements are incorporated in this study to evaluate target inhibition of mTORC1 and mTORC2 pathways, the consequences of such inhibition, and PK/PD relationships. In Parts A and B, biomarker analysis will involve measuring pAKT (mTORC2) in protein lysates derived from isolated platelets. Levels of p4EB-P1 and pS6RP (mTORC1), and pAKT (mTORC2), will be measured by flow cytometry using whole blood samples. Likewise, in Parts A and B, pAKT, p4EB-P1, p56, Ki67 and/or other relevant markers to assess Compound 1 activity will be measured in serial tumor biopsies from subjects with accessible disease when possible. The changes of each biomarker will be determined by comparing the levels of biomarkers in pre- and post-treatment samples and, where possible, correlate these with drug exposure in blood, and tissue if available, and tumor response over time. Full details of all statistical analyses and modeling for these outcomes will be described in the statistical analysis plan and final study report.
TOR Pathway Biomarker Measurements in Whole Blood. Blood samples received from clinical sites were aliquoted into a 96-deepwell plate and rested for 1 hour at 37° C. The samples were stimulated with anti-IgD and LPS for 15 minutes at 37° C. The red blood cells were lysed and the white blood cells were fixed with BD Lyse/Fix Buffer at a ratio of 15:1 buffer to blood for 10 minutes at 37° C. The plates were centrifuged, aspirated, and 1 mL of ice-cold methanol was added to the wells containing fixed white blood cells to permeabilize the cells for intracellular staining. The plates were stored overnight at −80° C. The plates were thawed, centrifuged, aspirated and washed twice with PBS+0.5% BSA. The cells were stained with antibodies specific for the surface markers CD3, CD14, and CD19, and for mTOR pathway markers, including pS6 (S235/236), p4EBP1 (T37/46), and pAKT (S473). The cells were washed twice with PBS and fixed with 1.6% PFA.
Sample analysis: The samples were analyzed on an 8 color cytometer. Control wells of 8-peak rainbow beads (Spherotech Libertyville, Ill.) were acquired at multiple points during sample acquisition. The median fluorescence intensity (MFI) was computed for each marker from the fluorescence intensity levels in T cells, B cells, and monocytes. The MFI were normalized using the 8-peak rainbow beads and presented as ERF (Equivalent number of Reference Fluorophores). ERFs were calculated from the MFIs using a linear regression transformation carried out on a log-log scale using the rainbow calibration particles with 8 intensities on 8 colors. The percent change from baseline for pS6, p4EBP1, and pAKT in stimulated and non-stimulated T cells, B cells, and monocytes was determined for each patient. The baseline value was an average of two visits (screening and cycle 1/day −1 at 0 hr pre-dose) when available.

With `CO[C@H]1CC[C@H](N2C(=O)CNc3ncc(-c4ccc(C(C)(C)O)nc4)nc32)CC1` [Compound 1, 7-(6-(2-hydroxypropan-2-yl)pyridin-3-yl)-1-((1r,4r)-4-methoxycyclohexyl)-3,4-dihydropyrazino-[2,3-b]pyrazin-2(1H)-one] the “best target lesions responses (reduction)” value (DLBCL) was “up to 75%”, the “patients meeting Partial Response (RECIST 1.1)” value (DLBCL) was 2 patients and the “patients meeting at least Stable Disease (RECIST 1.1)” value (DLBCL) was 1 patient. For the same compound, the “inhibition of TORC1 and TORC2 biomarkers” value ([1]; Part A, doses of 30 mg and higher, up to 5 hours post first dose, stimulated blood) was “Consistent inhibition”, the “TORC1 and TORC2 inhibition” value ([1]; Part B, DLBCL patients) was “observed in the first patient analyzed” and the “TORC1 and TORC2 inhibition” value ([1]; Part B, GBM patients) was “observed in majority of patients”. For the same compound, the “TORC1 and TORC2 inhibition” value ([1]; Part B, HCC patients) was “observed in majority of patients”, the “TORC1 and TORC2 inhibition” value ([1]; Part B, MM patients) was “observed in 2 patients” and the “TORC1 and TORC2 inhibition” value ([1]; Part B, NSCLC patients) was “observed in majority of patients”. The “TORC1 and TORC2 inhibition (pAkt, p4EPB1)” value ([1]; Part B, all cohorts, blood, 1.5 h after dosing, Cycle 1 Day 1 and Day 15, P <0.001) was “inhibition was observed”.
